From patent publication US5614533A, “Substituted pipecolinic acid derivatives as HIV protease inhibitors” (Bio-Mega/Boehringer Ingelheim Research, Inc., priority 1994, dated 1997)

Legend:
HIV protease = molecular target: T1, HIV protease (Human immunodeficiency virus type 1 group M subtype B, UniProt P04585); test: Recombinant HIV Protease HPLC Assay; type: biochemical; conditions: Table V; 37°, 30 min, pH 5.5
T1 construct: HIV protease was expressed in E. coli; made in house; host or cells: E. coli (plasmid pBRT1 prt+)
Outline: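 Recombinant protease from E. coli (pBRT1 prt+ construct), purified and diluted 1/38 for use, cleaves the decapeptide substrate VSFNFPQITL-NH2, containing an HIV polyprotein cleavage site. Inhibition of cleavage is monitored by HPLC.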

[1] = test system: HIV (H9/HTLV-IIIB) in C8166 cells; test: plaque assay: inhibition of syncytia formation in HIV-infected C8166 cells; type: cell-based; conditions: Table V, 72 h, 50% inhibition of syncytia formation
Outline: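 C8166 cells (5×10^4/well) infected with 50× TCID50 H9/HTLV-IIIB in HEPES-buffered RPMI 1640 (pH 7.2), 10% FCS, with test compound in triplicate; 72 h at 37°, 5% CO2. Syncytia centers counted by phase-contrast microscopy; EC50 from percent inhibition versus serial dilutions by non-linear regression.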

[2] = Human immunodeficiency virus 1, IIIB

Row | Compound | IC50 (HIV protease) | EC50 [1, 2] | EC50 [1]
1 | CC(C)[C@H](NC(=O)c1ccc2ccccc2n1)C(=O)N[C@@H](Cc1ccccc1)[C@H](O)CN1CC[C@@H](Oc2ccccc2)C[C@H]1C(=O)NC(C)(C)C [Table V, entry 7, N-tert-butyl-1-{2(S)(R)-hydroxy-4-phenyl-3(S)-{{N-(2-quinolylinylcarbonyl)valyl}amino}butyl}-4(R)-phenoxypiperidine-2-carboxamide] | 3.4 nM | 14 nM | –
2 | CC(C)[C@H](NC(=O)c1ccc2ccccc2n1)C(=O)N[C@@H](Cc1ccccc1)[C@H](O)CN1CC[C@@H](SCc2cccnc2)C[C@H]1C(=O)NC(C)(C)C [Table V, entry 8, N-tert-butyl-1-{2(S)(R)-hydroxy-4-phenyl-3(S)-{{N-(2-quinolylinylcarbonyl)valyl}amino}butyl}-4(R)-{(3-pyridinylmethyl)thio}piperidine-2-carboxamide] | 2.2 nM | 3 nM | –
3 | CC(C)[C@H](NC(=O)c1ccc2ccccc2n1)C(=O)N[C@@H](Cc1ccccc1)[C@H](O)CN1CC[C@@H](SCc2ccccn2)C[C@H]1C(=O)NC(C)(C)C [Table V, entry 9, N-tert-butyl-1-{2(S)(R)-hydroxy-4-phenyl-3(S)-{{N-(2-quinolylinylcarbonyl)valyl}amino}butyl}-4(R)-{(2-pyridinylmethyl)thio}piperidine-2-carboxamide] | 4.2 nM | 5 nM | –
4 | CC(C)[C@H](NC(=O)c1ccc2ccccc2n1)C(=O)N[C@@H](Cc1ccccc1)[C@H](O)CN1CC[C@@H](Oc2ncccn2)C[C@H]1C(=O)NC(C)(C)C [Table V, entry 10, N-tert-butyl-1-{2(S)(R)-hydroxy-4-phenyl-3(S)-{{N-(2-quinolylinylcarbonyl)valyl}amino}butyl}-4(R)-(2-pyrimidinyloxy)piperidine-2-carboxamide] | 3.2 nM | 25 nM | –
5 | Cc1cc(C)nc(O[C@@H]2CCN(C[C@@H](O)[C@H](Cc3ccccc3)NC(=O)[C@@H](NC(=O)c3ccc4ccccc4n3)C(C)C)[C@H](C(=O)NC(C)(C)C)C2)n1 [Table V, entry 11, N-tert-butyl-1-{2(S)(R)-hydroxy-4-phenyl-3(S)-{{N-(2-quinolylinylcarbonyl)valyl}amino}butyl}-4(R)-{(4,6-dimethyl-2-pyrimidinyl)oxy}piperidine-2-carboxamide] | 4 nM | 20 nM | –
6 | Cc1ccnc(O[C@@H]2CCN(C[C@@H](O)[C@H](Cc3ccccc3)NC(=O)[C@@H](NC(=O)c3ccc4ccccc4n3)C(C)C)[C@H](C(=O)NC(C)(C)C)C2)n1 [Table V, entry 12, N-tert-butyl-1-{2(S)(R)-hydroxy-4-phenyl-3(S)-{{N-(2-quinolylinylcarbonyl)valyl}amino}butyl}-4(R)-{(4-methyl-2-pyrimidinyl)oxy}piperidine-2-carboxamide] | 4.5 nM | 44 nM | –
7 | Cc1cc(O[C@@H]2CCN(C[C@@H](O)[C@H](Cc3ccccc3)NC(=O)[C@@H](NC(=O)c3ccc4ccccc4n3)C(C)C)[C@H](C(=O)NC(C)(C)C)C2)nc(C)n1 [Table V, entry 13, N-tert-butyl-1-{2(S)(R)-hydroxy-4-phenyl-3(S)-{{N-(2-quinolylinylcarbonyl)valyl}amino}butyl}-4(R)-{(2,6-dimethyl-4-pyrimidinyl)oxy}piperidine-2-carboxamide] | 3.6 nM | 17 nM | –
8 | CC(C)[C@H](NC(=O)c1ccc2ccccc2n1)C(=O)N[C@@H](Cc1ccccc1)C(O)CN1CC[C@@H](S(=O)(=O)c2ccccc2)CC1C(=O)NC(C)(C)C (stereo partly drawn) [Table V, entry 14, N-tert-butyl-1-{2(S)(R)-hydroxy-4-phenyl-3(S)-{{N-(2-quinolylinylcarbonyl)valyl}amino}butyl}-4(R)-(phenylsulfonyl)piperidine-2-carboxamide] | 2.9 nM | – | 23 nM
9 | CC(C)[C@H](NC(=O)c1ccc2ccccc2n1)C(=O)N[C@@H](Cc1ccccc1)[C@H](O)CN1CC[C@@H](Oc2ccc(F)cc2)C[C@H]1C(=O)NC(C)(C)C [Table V, entry 15, N-tert-butyl-1-{2(S)(R)-hydroxy-4-phenyl-3(S)-{{N-(2-quinolylinylcarbonyl)valyl}amino}butyl}-4(R)-{(4-fluorophenyl)oxy}piperidine-2-carboxamide] | 2.6 nM | 22 nM | –
10 | CC(C)[C@H](NC(=O)c1ccc2ccccc2n1)C(=O)N[C@@H](Cc1ccccc1)[C@H](O)CN1CC[C@@H](OCc2ccncc2)C[C@H]1C(=O)NC(C)(C)C [Table V, entry 16, N-tert-butyl-1-{2(S)(R)-hydroxy-4-phenyl-3(S)-{{N-(2-quinolylinylcarbonyl)valyl}amino}butyl}-4(R)-(4-pyridinylmethoxy)piperidine-2-carboxamide] | 4.2 nM | 22 nM | –
11 | CC(C)[C@H](NC(=O)c1ccc2ccccc2n1)C(=O)N[C@@H](Cc1ccccc1)[C@H](O)CN1CC[C@@H](S(=O)(=O)Cc2ccccn2)C[C@H]1C(=O)NC(C)(C)C [Table V, entry 17, N-tert-butyl-1-{2(S)(R)-hydroxy-4-phenyl-3(S)-{{N-(2-quinolylinylcarbonyl)valyl}amino}butyl}-4(R)-{(2-pyridinylmethyl)sulfonyl}piperidine-2-carboxamide] | 2.4 nM | 33 nM | –
12 | CC(C)[C@H](NC(=O)c1ccc2ccccc2n1)C(=O)N[C@@H](Cc1ccccc1)[C@H](O)CN1CC[C@@H](S(=O)(=O)Cc2cccnc2)C[C@H]1C(=O)NC(C)(C)C [Table V, entry 18, N-tert-butyl-1-{2(S)(R)-hydroxy-4-phenyl-3(S)-{{N-(2-quinolylinylcarbonyl)valyl}amino}butyl}-4(R)-{(3-pyridinylmethyl)sulfonyl}piperidine-2-carboxamide] | 1.8 nM | 67 nM | –
13 | CC(C)[C@H](NC(=O)c1ccc2ccccc2n1)C(=O)N[C@@H](Cc1ccccc1)[C@H](O)CN1CC[C@@H](S(=O)(=O)Cc2ccncc2)C[C@H]1C(=O)NC(C)(C)C [Table V, entry 19, N-tert-butyl-1-{2(S)(R)-hydroxy-4-phenyl-3(S)-{{N-(2-quinolylinylcarbonyl)valyl}amino}butyl}-4(R)-{(4-pyridinylmethyl)sulfonyl}piperidine-2-carboxamide] | 4.6 nM | 73 nM | –
14 | CC(C)[C@H](NC(=O)c1ccc2ccccc2n1)C(=O)N[C@@H](Cc1ccccc1)[C@H](O)CN1CC[C@@H](S(=O)(=O)c2ccccn2)C[C@H]1C(=O)NC(C)(C)C [Table V, entry 20, N-tert-butyl-1-{2(S)(R)-hydroxy-4-phenyl-3(S)-{{N-(2-quinolylinylcarbonyl)valyl}amino}butyl}-4(R)-(2-pyridinylsulfonyl)piperidine-2-carboxamide] | 1.7 nM | 13 nM | –
15 | CC(C)[C@H](NC(=O)c1ccc2ccccc2n1)C(=O)N[C@@H](Cc1ccccc1)[C@H](O)CN1CC[C@@H](S(=O)(=O)c2ccncc2)C[C@H]1C(=O)NC(C)(C)C [Table V, entry 21, N-tert-butyl-1-{2(R)-hydroxy-4-phenyl-3(S)-{{N-(2-quinolylinylcarbonyl)valyl}amino}butyl}-4(R)-(4-pyridinylsulfonyl)piperidine-2(S)-carboxamide] | 1.7 nM | 25 nM | –
